Laboratory results taken from patent US20260015581A1, “METHODS FOR THE PRODUCTION OF RETINAL CELLS” (MIAMI UNIVERSITY, priority 2018, published 2026).

Tested on: PGP1-derived RPE
Assay: Small molecule screen for reprogramming of PGP1-derived RPE to neural retina (induction of fluorescent reporter expression)
Settings: 40 μM; D0, D5 and D10 of treatment (FIG. 21)
Description: A second small molecule screen tested 180 compounds at a concentration of 40 μM designed to target epigenetic pathways (from the Selleck Chemicals Epigenetic Compounds Library L1900).

| Compound | subsequent induction of eGFP expression (retinal ganglion cell reporter) in PGP1-derived RPE |
| --- | --- |
| BI 847325 | subsequently induces the expression of eGFP |

Same assay, conditions: Selleck Chemicals Epigenetic Compounds Library L1900; 40 μM

| Compound | induction of Cerulean expression in PGP1-derived RPE |
| --- | --- |
| Cc1c(CN2CCC(Nc3ncnc4sc(CC(F)(F)F)cc34)CC2)ccc2[nH]c(C#N)cc12 [MI 463] | showed evidence of inducing Cerulean expression |
| COc1cc2c(Nc3ccc(NC(=O)c4ccccc4)cc3)ncnc2cc1OCCCN1CCOCC1 [ZM 447439] | showed evidence of inducing Cerulean expression |
| CN1CCN(c2ccc(-c3cccc(CN4CCOCC4)c3)cc2NC(=O)c2c[nH]c(=O)cc2C(F)(F)F)CC1 [OICR-9429] | showed evidence of inducing Cerulean expression |
| O=C(Nc1ccccc1-c1cn2c(CN3CC[C@@H](O)C3)csc2n1)c1ccc2ccccc2c1 [SSRT2183] | showed evidence of inducing Cerulean expression |
| BI 847325 | showed evidence of inducing Cerulean expression |
| CN(C)CCCNC(=O)c1ccc(-c2cc(O)c3ncccc3c2)cc1 [ML324] | showed evidence of inducing Cerulean expression |
| O=C(O)c1ccc(O)c2ncccc12 [Carboxy-8-hydroxyquinoline] | showed evidence of inducing Cerulean expression |
| CCn1cc(-c2cccc(C(F)(F)F)c2)c2sc(C(=N)NC3CCS(=O)(=O)CC3)cc2c1=O [I-BRD9] | showed evidence of inducing Cerulean expression |
| C1=C/COCc2cc(ccc2OCCN2CCCC2)Nc2nccc(n2)-c2cccc(c2)COC/1 [Pacritinib] | showed evidence of inducing Cerulean expression |

Same assay, conditions: first library of 127 compounds; 5-15 days of treatment; at least 9 different replicates; U0126 39 μM, SC 79 110 μM, KU 0063794 3 μM

| Compound | induction of Cerulean expression (blue fluorescent cells) in PGP1-derived RPE |
| --- | --- |
| COc1ccc(-c2ccc3c(N4CCOCC4)nc(N4C[C@@H](C)O[C@@H](C)C4)nc3n2)cc1CO [KU 0063794] | produced blue fluorescent cells |
| CCOC(=O)C1=C(N)Oc2ccc(Cl)cc2C1C(C#N)C(=O)OCC (stereo not shown) [SC 79] | produced blue fluorescent cells |
| N#CC(=C(/N)Sc1ccccc1N)/C(C#N)=C(\N)Sc1ccccc1N [U0126] | produced blue fluorescent cells |
